Results: PMC12090182, “Repurposing of the RIPK1-Selective Benzo[1,4]oxazepin-4-one Scaffold for the Development of a Type III LIMK1/2 Inhibitor” (ACS Chemical Biology, 2025)

Tests used:
Assay in all cases: scanMAX KINOMEscan (Eurofins)
Format in all cases: binding
ABL1-nonphosphorylated = ABL1-nonphosphorylated (Homo sapiens, UniProt P00519); conditions: read-out: Percent Control
From the text: (§1) Supplement cb5c00097_si_002.xlsx, sheet "Table S6 (Eurofins Selectivity)" | column: Percent Control

ASK1 = ASK1 (Homo sapiens, UniProt Q99683); conditions: read-out: Percent Control
From the text: as §1

ASK2 = ASK2 (Homo sapiens, UniProt O95382); conditions: 1000 nM, read-out: Percent Control
From the text: as §1

CDK11 = CDK11 (Homo sapiens, UniProt Q9BWU1); conditions: read-out: Percent Control
From the text: as §1

CDKL3 = CDKL3 (Homo sapiens, UniProt Q8IVW4); conditions: read-out: Percent Control
From the text: as §1

CSK = CSK (Homo sapiens, UniProt P41240); conditions: 1000 nM, read-out: Percent Control
From the text: as §1

DAPK3 = DAPK3 (Homo sapiens, UniProt O43293); conditions: 1000 nM, read-out: Percent Control
From the text: as §1

DMPK2 = DMPK2 (Homo sapiens, UniProt Q6DT37); conditions: read-out: Percent Control
From the text: as §1

EGFR = EGFR (Homo sapiens, UniProt P00533); conditions: read-out: Percent Control
From the text: as §1

EPHA3 = EPHA3 (Homo sapiens, UniProt P29320); conditions: read-out: Percent Control
From the text: as §1

FER = FER (Homo sapiens, UniProt P16591); conditions: 1000 nM, read-out: Percent Control
From the text: as §1

FLT1 = FLT1 (Homo sapiens, UniProt P17948); conditions: 1000 nM, read-out: Percent Control
From the text: as §1

[1] = biological target: JAK1(JH1domain-catalytic) (Homo sapiens, UniProt P23458); conditions: 1000 nM, read-out: Percent Control
From the text: as §1

JNK1 = JNK1 (Homo sapiens, UniProt P45983); conditions: compound concentration 100 nM; Entrez MAPK8; read-out: Percent Control
From the text: as §1

MAST1 = MAST1 (Homo sapiens, UniProt Q9Y2H9); conditions: 1000 nM, read-out: Percent Control
From the text: as §1

MEK3 = MEK3 (Homo sapiens, UniProt P46734); conditions: 1000 nM, read-out: Percent Control
From the text: as §1

MRCKA = MRCKA (Homo sapiens, UniProt Q5VT25); conditions: 1000 nM, read-out: Percent Control
From the text: as §1

MRCKB = MRCKB (Homo sapiens, UniProt Q9Y5S2); conditions: compound concentration 100 nM; Entrez CDC42BPB; read-out: Percent Control
From the text: as §1

NDR2 = NDR2 (Homo sapiens, UniProt Q9Y2H1); conditions: 1000 nM, read-out: Percent Control
From the text: as §1

NEK9 = NEK9 (Homo sapiens, UniProt Q8TD19); conditions: 1000 nM, read-out: Percent Control
From the text: as §1

NIM1 = NIM1 (Homo sapiens, UniProt Q8IY84); conditions: compound concentration 100 nM; Entrez MGC42105; read-out: Percent Control
From the text: as §1

PCTK2 = PCTK2 (Homo sapiens, UniProt Q00537); conditions: 1000 nM, read-out: Percent Control
From the text: as §1

PHKG2 = PHKG2 (Homo sapiens, UniProt P15735); conditions: 1000 nM, read-out: Percent Control
From the text: as §1

PIK3CG = PIK3CG (Homo sapiens, UniProt P48736); conditions: 1000 nM, read-out: Percent Control
From the text: as §1

PKAC-alpha = PKAC-alpha (Homo sapiens, UniProt P17612); conditions: compound concentration 100 nM; Entrez PRKACA; read-out: Percent Control
From the text: as §1

PKN1 = PKN1 (Homo sapiens, UniProt Q16512); conditions: read-out: Percent Control
From the text: as §1

PLK2 = PLK2 (Homo sapiens, UniProt Q9NYY3); conditions: compound concentration 100 nM; Entrez PLK2; read-out: Percent Control
From the text: as §1

PRP4 = PRP4 (Homo sapiens, UniProt Q13523); conditions: compound concentration 100 nM; Entrez PRPF4B; read-out: Percent Control
From the text: as §1

[2] = biological target: RPS6KA5(Kin.Dom.2-C-terminal) (Homo sapiens, UniProt O75582); conditions: compound concentration 100 nM; Entrez RPS6KA5; read-out: Percent Control
From the text: as §1

SIK = SIK (Homo sapiens, UniProt P57059); conditions: 1000 nM, read-out: Percent Control
From the text: as §1

TIE2 = TIE2 (Homo sapiens, UniProt Q02763); conditions: compound concentration 100 nM; Entrez TEK; read-out: Percent Control
From the text: as §1

YANK1 = YANK1 (Homo sapiens, UniProt Q8WU08); conditions: 1000 nM, read-out: Percent Control
From the text: as §1

YANK2 = YANK2 (Homo sapiens, UniProt Q9NY57); conditions: compound concentration 100 nM; Entrez STK32B; read-out: Percent Control
From the text: as §1

ZAP70 = ZAP70 (Homo sapiens, UniProt P43403); conditions: compound concentration 100 nM; Entrez ZAP70; read-out: Percent Control
From the text: as §1

p38-delta = p38-delta (Homo sapiens, UniProt O15264); conditions: compound concentration 100 nM; Entrez MAPK13; read-out: Percent Control
From the text: as §1

Chain of CDKL3 (Q8IVW4 whole entry): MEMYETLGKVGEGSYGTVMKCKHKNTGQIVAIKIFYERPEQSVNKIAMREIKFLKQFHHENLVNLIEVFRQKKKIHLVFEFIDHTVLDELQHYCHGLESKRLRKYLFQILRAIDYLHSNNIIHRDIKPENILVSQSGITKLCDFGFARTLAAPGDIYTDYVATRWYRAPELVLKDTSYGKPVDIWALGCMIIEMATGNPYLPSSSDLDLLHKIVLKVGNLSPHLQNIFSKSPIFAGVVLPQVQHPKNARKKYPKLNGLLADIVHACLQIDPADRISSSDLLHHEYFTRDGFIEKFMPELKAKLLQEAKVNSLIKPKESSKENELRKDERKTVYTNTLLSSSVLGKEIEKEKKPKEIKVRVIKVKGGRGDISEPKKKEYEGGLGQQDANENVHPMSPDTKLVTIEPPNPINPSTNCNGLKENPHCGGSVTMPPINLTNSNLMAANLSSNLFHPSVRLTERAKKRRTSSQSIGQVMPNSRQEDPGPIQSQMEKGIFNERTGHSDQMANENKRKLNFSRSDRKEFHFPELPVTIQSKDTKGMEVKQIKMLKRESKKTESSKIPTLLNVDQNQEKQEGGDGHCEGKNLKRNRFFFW
Chain of DMPK2 (Q6DT37 whole entry): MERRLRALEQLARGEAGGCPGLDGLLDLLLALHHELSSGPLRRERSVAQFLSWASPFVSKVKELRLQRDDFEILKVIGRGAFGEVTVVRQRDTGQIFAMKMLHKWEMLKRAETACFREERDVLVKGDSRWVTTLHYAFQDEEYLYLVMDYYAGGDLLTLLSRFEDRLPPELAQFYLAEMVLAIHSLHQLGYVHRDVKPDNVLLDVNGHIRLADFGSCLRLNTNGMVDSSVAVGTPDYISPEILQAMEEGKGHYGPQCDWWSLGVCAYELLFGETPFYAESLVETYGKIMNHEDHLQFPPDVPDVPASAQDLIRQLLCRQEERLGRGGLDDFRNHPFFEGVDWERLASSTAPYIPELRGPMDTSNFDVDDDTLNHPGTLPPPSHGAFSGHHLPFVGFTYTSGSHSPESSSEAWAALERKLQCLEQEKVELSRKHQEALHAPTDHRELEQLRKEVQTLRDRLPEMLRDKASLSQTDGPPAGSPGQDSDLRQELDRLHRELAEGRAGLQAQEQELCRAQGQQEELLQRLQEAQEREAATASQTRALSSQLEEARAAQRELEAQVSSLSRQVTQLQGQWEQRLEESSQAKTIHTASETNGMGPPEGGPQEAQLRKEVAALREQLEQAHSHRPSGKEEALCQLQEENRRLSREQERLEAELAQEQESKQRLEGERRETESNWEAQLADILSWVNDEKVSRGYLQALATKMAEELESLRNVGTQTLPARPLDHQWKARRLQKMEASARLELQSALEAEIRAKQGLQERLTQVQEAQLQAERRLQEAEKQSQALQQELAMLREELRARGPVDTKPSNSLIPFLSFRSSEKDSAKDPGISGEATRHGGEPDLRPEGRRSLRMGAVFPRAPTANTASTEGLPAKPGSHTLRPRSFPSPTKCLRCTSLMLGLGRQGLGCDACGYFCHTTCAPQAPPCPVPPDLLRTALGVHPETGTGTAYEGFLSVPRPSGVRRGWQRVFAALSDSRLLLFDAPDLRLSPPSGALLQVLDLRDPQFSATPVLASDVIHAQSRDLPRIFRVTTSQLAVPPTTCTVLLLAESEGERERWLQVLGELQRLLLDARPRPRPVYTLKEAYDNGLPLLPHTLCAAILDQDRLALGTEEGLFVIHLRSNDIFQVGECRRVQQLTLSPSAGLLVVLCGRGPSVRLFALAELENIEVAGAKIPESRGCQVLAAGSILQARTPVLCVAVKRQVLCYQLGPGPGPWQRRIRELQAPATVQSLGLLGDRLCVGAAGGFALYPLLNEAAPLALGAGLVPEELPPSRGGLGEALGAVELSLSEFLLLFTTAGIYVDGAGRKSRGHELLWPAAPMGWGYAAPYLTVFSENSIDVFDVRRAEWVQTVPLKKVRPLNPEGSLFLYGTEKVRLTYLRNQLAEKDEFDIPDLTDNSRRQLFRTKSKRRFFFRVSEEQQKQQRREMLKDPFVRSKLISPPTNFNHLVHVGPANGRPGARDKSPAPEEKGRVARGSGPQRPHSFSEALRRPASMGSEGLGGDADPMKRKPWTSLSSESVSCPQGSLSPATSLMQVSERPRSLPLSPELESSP
Chain of EPHA3 (P29320 21-983): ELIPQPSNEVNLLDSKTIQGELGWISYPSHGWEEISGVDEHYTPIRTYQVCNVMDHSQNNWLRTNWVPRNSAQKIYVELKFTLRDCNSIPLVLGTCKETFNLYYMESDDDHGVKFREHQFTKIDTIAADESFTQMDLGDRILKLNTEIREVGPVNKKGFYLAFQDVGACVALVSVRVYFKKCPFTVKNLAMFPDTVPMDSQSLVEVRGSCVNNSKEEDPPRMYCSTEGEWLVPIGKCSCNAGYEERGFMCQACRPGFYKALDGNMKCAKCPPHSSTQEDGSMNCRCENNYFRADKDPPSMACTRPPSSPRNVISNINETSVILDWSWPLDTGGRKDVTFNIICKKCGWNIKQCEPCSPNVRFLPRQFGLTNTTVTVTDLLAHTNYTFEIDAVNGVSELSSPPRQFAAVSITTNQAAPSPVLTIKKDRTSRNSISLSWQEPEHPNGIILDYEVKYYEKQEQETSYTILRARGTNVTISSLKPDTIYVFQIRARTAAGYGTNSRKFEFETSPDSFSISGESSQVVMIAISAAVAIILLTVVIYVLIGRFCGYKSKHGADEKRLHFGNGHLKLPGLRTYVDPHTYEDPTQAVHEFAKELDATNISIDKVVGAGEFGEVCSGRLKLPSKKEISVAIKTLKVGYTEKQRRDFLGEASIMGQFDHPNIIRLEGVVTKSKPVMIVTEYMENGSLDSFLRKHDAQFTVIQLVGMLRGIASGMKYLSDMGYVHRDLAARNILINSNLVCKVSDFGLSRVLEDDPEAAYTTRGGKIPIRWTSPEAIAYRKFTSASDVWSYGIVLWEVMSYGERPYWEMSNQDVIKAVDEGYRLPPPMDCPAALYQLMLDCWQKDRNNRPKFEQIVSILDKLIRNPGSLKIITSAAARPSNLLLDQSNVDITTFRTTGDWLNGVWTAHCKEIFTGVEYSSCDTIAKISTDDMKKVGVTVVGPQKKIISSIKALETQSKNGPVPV
Chain of EGFR (P00533 25-1210): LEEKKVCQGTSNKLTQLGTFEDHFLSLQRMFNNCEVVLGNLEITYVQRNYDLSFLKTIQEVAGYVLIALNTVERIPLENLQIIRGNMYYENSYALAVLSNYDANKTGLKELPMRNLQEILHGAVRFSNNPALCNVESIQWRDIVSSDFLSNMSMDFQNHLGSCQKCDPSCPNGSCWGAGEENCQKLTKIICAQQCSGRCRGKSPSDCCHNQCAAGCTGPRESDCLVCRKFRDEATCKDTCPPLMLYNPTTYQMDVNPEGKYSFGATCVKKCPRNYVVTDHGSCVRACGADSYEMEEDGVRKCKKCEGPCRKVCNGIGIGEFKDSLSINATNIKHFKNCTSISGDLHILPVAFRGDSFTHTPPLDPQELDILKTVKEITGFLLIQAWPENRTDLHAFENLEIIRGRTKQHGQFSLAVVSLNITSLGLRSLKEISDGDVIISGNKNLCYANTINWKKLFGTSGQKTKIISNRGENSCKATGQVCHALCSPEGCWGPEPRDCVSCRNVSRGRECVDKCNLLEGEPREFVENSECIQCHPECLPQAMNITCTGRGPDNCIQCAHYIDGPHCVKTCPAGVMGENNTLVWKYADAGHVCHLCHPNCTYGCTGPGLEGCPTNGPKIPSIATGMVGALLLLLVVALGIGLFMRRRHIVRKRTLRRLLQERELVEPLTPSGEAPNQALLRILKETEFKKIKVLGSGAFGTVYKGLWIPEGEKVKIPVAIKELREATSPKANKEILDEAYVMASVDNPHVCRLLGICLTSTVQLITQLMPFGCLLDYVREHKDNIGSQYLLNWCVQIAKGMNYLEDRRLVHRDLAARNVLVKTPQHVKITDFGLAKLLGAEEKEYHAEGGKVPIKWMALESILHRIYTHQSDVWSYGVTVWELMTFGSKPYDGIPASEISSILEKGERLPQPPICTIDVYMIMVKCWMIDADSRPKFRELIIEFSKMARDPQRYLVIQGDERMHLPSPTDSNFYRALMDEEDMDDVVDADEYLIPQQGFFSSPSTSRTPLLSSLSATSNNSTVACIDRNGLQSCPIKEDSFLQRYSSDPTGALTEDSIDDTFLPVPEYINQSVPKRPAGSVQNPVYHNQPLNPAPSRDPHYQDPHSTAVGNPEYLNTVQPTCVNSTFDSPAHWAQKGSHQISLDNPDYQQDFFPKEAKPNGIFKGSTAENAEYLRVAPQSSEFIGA
Chain of CDK11 (Q9BWU1 whole entry): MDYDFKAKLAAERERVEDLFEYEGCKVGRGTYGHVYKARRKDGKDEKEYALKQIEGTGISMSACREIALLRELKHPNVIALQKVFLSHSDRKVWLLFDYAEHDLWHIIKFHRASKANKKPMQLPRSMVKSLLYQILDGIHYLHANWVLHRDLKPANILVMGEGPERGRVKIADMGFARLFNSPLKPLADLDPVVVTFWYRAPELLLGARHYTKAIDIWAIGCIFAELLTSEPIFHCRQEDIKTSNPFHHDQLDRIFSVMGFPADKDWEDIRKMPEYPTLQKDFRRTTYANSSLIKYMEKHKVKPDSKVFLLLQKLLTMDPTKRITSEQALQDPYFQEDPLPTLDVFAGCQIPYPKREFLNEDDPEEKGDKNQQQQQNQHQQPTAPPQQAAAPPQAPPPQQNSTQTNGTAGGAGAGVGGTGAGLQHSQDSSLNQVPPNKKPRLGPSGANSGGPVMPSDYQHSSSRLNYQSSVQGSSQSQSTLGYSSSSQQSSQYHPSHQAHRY
Chain of JAK1(JH1domain-catalytic) (P23458 866-1154): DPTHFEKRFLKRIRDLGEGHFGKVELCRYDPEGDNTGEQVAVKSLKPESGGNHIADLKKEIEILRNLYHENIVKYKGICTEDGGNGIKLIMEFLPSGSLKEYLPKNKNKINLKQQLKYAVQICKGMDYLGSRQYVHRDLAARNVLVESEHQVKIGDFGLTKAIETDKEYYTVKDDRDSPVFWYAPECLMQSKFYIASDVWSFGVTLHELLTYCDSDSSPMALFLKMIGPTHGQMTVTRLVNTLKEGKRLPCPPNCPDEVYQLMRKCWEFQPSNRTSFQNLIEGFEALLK

Compound: CN1C(=O)[C@@H](N2CCc3c(nn(Cc4ccccc4)c3C(N)=O)C2=O)COc2cc(Cl)ccc21 [Compound 10, (S)-2-benzyl-6-(8-chloro-5-methyl-4-oxo-2,3,4,5-tetrahydrobenzo[b][1,4]oxazepin-3-yl)-7-oxo-4,5,6,7-tetrahydro-2H-pyrazolo[3,4-c]pyridine-3-carboxamide]
- remaining binding at 1 µM (ABL1-nonphosphorylated; 1000 nM): 100%
- remaining binding at 0.1 µM (ABL1-nonphosphorylated; compound concentration 100 nM, Entrez ABL1): 100%
- remaining binding at 1 µM (ASK1; 1000 nM): 100%
- remaining binding at 0.1 µM (ASK1; compound concentration 100 nM, Entrez MAP3K5): 91%
- remaining binding at 1 µM (ASK2): 90%
- remaining binding at 1 µM (CDK11; 1000 nM): 100%
- remaining binding at 0.1 µM (CDK11; compound concentration 100 nM, Entrez CDK19): 100%
- remaining binding at 1 µM (CDKL3; 1000 nM): 100%
- remaining binding at 0.1 µM (CDKL3; compound concentration 100 nM, Entrez CDKL3): 91%
- remaining binding at 1 µM (CSK): 97%
- remaining binding at 1 µM (DAPK3): 87%
- remaining binding at 1 µM (DMPK2; 1000 nM): 100%
- remaining binding at 0.1 µM (DMPK2; compound concentration 100 nM, Entrez CDC42BPG): 92%
- remaining binding at 1 µM (EGFR; 1000 nM): 100%
- remaining binding at 0.1 µM (EGFR; compound concentration 100 nM, Entrez EGFR): 96%
- remaining binding at 1 µM (EPHA3; 1000 nM): 100%
- remaining binding at 0.1 µM (EPHA3; compound concentration 100 nM, Entrez EPHA3): 77%
- remaining binding at 1 µM (FER): 90%
- remaining binding at 1 µM (FLT1): 86%
- remaining binding at 1 µM [1]: 89%
- remaining binding at 0.1 µM (JNK1): 79%
- remaining binding at 1 µM (MAST1): 75%
- remaining binding at 1 µM (MEK3): 97%
- remaining binding at 1 µM (MRCKA): 88%
- remaining binding at 0.1 µM (MRCKB): 95%
- remaining binding at 1 µM (NDR2): 96%
- remaining binding at 1 µM (NEK9): 92%
- remaining binding at 0.1 µM (NIM1): 99%
- remaining binding at 1 µM (PCTK2): 90%
- remaining binding at 1 µM (PHKG2): 78%
- remaining binding at 1 µM (PIK3CG): 90%
- remaining binding at 0.1 µM (PKAC-alpha): 90%
- remaining binding at 1 µM (PKN1; 1000 nM): 98%
- remaining binding at 0.1 µM (PKN1; compound concentration 100 nM, Entrez PKN1): 86%
- remaining binding at 0.1 µM (PLK2): 100%
- remaining binding at 0.1 µM (PRP4): 67%
- remaining binding at 0.1 µM [2]: 95%
- remaining binding at 1 µM (SIK): 91%
- remaining binding at 0.1 µM (TIE2): 95%
- remaining binding at 1 µM (YANK1): 90%
- remaining binding at 0.1 µM (YANK2): 99%
- remaining binding at 0.1 µM (ZAP70): 84%
- remaining binding at 0.1 µM (p38-delta): 79%
